Activity calls are given as the source filed them.
What was measured:
[1] = target: G2/mitotic-specific cyclin-B1 (Homo sapiens, UniProt P14635); assay: Counterscreen assay for inhibitors of Wee1 degradation: dose response cell-based assay to identify inhibitors of cyclin B degradation. [Related pubchem assays: 1410, 1321 ]; format: functional
Wee1-like protein kinase = Wee1-like protein kinase (Homo sapiens, UniProt P30291); assay: Dose Response Cell-based Assay for Inhibitors of Wee1 Degradation. [Related pubchem assays: 1410, 1321 ]; format: functional
[2] = blockers of bursicon-stimulated LGR2 cAMP reporter – cell-based, HEK293, CRE-luciferase reporter, cherry pick, set 2, dose response (AID 743343); format: functional;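 note: transfected cells were stimulated with diluted bursicon conditioned medium after compound addition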
[3] = target: Luciferin 4-monooxygenase (Photinus pyralis, UniProt P08659); assay: Counter Screen for Luciferase-based Assay Positives. [Related pubchem assays: 620, 618, 411 ]
[4] = blockade of melanocortin 4 receptor signaling – cell-based, plate reader, cherry pick, counter-screen for LGR2 antagonist project, dose response (AID 743444); format: functional;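 note: transfected HEK 293 cells stimulated with alpha-MSH peptide; potency of inhibitors of the alpha-MSH evoked signal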
HT-1080 = assay: HT1080 cell viability loss – fluorescence readout (AID 620); format: functional, cell-based; conditions: Homo sapiens
[5] = viability loss in HEK293 cells – cell-based, plate reader, cherry-picked samples, cytotoxicity control, dose response (AID 743446); format: functional
[6] = A549 cell cytotoxicity, dose response, cytotoxicity control, plate reader, cherry-pick, antagonist series (AID 743412); format: functional, cell-based
[7] = Counterscreen for IDE inhibitors: Luminescence-based cell-based high throughput dose response assay to identify compounds that are cytotoxic to HEK cells. [Related pubchem assays: 434962 (Primary screen (IDE inhibitors in singlicate)), 449730 (Counterscreen (Cytotoxicity in triplicate)), 435028 (Confirmation (IDE inhibitors in triplicate)) …; format: functional; conditions: HEK293
Insulin-degrading enzyme = target: T1, Insulin-degrading enzyme (Homo sapiens, UniProt P14735); assay: Dose Response: Fluorescence polarization-based cell-based high throughput dose response assay for inhibitors of insulin-degrading enzyme (IDE). [Related pubchem assays: 434962 (Primary screen (IDE inhibitors in singlicate)), 449730 (Counterscreen (Cytotoxicity in triplicate)), 435028 (Confirmation (IDE inhibitors in triplicate)), 434984 (Summary …; format: functional
T1 sequence (P14735 whole entry): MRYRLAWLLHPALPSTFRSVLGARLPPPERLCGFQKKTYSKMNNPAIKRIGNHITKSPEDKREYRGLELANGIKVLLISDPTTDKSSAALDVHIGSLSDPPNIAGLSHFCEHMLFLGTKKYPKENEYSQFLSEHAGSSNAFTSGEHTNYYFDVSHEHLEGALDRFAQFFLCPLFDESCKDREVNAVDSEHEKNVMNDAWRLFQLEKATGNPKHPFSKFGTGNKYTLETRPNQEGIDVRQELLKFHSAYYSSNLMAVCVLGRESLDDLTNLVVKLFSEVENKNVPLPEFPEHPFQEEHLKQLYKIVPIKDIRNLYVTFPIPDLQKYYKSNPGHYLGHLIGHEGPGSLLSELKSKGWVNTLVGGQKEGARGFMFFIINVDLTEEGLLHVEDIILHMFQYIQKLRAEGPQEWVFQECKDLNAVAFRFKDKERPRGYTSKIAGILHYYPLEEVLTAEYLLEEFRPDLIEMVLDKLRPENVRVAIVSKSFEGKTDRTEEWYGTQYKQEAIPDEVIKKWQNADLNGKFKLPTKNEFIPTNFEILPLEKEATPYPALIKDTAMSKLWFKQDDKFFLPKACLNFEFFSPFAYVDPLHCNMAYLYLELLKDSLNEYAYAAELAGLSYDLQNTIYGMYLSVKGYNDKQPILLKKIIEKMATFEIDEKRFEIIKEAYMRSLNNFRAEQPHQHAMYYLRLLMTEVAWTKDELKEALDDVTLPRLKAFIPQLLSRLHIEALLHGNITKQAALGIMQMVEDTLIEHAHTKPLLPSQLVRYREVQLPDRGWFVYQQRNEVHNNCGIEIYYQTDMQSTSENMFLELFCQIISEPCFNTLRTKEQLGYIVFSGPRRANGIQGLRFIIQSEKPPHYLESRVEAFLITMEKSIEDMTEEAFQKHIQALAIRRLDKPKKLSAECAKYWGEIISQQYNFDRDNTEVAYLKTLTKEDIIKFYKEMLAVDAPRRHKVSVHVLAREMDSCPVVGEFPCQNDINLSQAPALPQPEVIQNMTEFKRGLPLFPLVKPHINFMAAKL

[8] = Luminescence Cell-Based Dose Retest to Confirm Inhibitors of Cancer Stem Cells. [Related pubchem assays (depositor defined):AID2717, AID2721]; format: functional; conditions: Homo sapiens
[9] = antiviral protection against BTV-induced cell death – arbovirus, BSR cells, confirmation (AID 1250); format: functional;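 note: protection from viral cytopathic effect measured as cell viability by ATP luminescence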

Sequence of Wee1-like protein kinase (P30291 whole entry): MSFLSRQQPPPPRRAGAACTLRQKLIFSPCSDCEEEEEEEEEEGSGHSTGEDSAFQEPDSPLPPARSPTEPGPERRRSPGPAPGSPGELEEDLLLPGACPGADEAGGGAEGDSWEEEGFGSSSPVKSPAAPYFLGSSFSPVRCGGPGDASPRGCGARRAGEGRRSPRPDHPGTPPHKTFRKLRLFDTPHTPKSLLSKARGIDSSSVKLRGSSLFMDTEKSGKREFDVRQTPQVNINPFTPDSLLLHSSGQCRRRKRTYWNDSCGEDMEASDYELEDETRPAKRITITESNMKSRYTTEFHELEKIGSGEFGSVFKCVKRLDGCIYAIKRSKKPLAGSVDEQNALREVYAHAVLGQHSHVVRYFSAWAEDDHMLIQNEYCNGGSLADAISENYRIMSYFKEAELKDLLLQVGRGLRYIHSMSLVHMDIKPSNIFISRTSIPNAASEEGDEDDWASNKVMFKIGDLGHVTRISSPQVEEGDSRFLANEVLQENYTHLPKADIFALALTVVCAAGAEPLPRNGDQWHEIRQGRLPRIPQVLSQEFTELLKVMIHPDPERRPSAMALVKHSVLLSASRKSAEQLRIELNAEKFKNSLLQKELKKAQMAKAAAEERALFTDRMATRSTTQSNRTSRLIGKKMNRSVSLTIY
Sequence of G2/mitotic-specific cyclin-B1 (P14635 whole entry): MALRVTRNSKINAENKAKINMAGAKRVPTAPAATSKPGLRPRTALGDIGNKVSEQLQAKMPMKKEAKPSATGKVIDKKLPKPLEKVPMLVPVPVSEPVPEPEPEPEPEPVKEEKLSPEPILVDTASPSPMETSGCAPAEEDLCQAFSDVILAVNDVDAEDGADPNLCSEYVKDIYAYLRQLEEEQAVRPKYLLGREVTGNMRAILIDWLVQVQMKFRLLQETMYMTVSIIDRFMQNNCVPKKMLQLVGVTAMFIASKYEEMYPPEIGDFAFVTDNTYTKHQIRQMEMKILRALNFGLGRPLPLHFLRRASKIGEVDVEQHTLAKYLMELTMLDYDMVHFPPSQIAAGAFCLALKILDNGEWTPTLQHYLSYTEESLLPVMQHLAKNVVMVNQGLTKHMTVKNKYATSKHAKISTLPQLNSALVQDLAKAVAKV
Sequence of Luciferin 4-monooxygenase (P08659 whole entry): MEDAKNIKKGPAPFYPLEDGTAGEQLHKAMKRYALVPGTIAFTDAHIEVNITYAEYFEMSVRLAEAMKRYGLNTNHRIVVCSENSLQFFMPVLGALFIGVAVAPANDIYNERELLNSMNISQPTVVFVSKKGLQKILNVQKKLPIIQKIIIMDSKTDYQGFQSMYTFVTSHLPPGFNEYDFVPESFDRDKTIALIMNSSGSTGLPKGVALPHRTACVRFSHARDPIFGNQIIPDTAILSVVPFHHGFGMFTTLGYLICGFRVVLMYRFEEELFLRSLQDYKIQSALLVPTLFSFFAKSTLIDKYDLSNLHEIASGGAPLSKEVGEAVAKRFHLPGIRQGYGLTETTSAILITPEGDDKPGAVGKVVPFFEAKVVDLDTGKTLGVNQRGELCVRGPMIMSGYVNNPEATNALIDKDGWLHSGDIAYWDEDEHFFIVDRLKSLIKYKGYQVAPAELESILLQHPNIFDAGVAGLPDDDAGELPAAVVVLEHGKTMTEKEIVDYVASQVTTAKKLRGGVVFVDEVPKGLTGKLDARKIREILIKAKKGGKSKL

Q: Which EC50 [1] does the source give for O=C(COc1ccc(C(=O)c2ccc(F)cc2)cc1)NCc1ccc(F)cc1 here?
A: > 49.7 µM (not active)

Q: And the EC50 (Wee1-like protein kinase)?
A: > 49.7 µM (not active)

Q: With CCOc1ccc(C(=O)NCCc2ccccc2)cc1 as the molecule, how does the AC50 [2] read?
A: 4.83 µM (active)

Q: And the EC50 [3]?
A: 1.09 µM (active)

Q: What about the AC50 [4] of the same molecule?
A: 3.43 µM (active)

Q: And the EC50 (HT-1080)?
A: > 50 µM (not active)

Q: And the AC50 [5]?
A: > 52 µM (inactive)

Q: What about the AC50 [6] of the same molecule?
A: > 52 µM (inactive)

Q: With CCOc1ccccc1-n1c(SCC(=O)N2CCCc3ccccc32)nnc1-c1cccnc1 as the molecule, how does the IC50 [7] read?
A: 24.8 µM (not active)

Q: What about the IC50 (Insulin-degrading enzyme) of the same molecule?
A: > 55.9 µM (not active)

Q: With CC(C)(Oc1ccc(Cl)cc1)C(=O)NC1=NN(c2ccccc2)C(=O)C1 as the molecule, how does the AC50 [8] read?
A: 3.91 µM (active)

Q: And the IC50 [9]?
A: 31.8 µM (active)

— ChEMBL document CHEMBL1201862, “PubChem BioAssay data set” (2004)
